Assay results as given in PubChem BioAssay AID504672 (Sanford-Burnham Center for Chemical Genomics, 2011).
Activity calls are given as the source filed them. Cut-off read from the data, not from the text of the source: active = IC50 below about 71 µM; inactive = the rest.

Test system: S. cerevisiae tim10 strain, luminescence counterscreen
Test: signal inhibition in TIM10 yeast counter-screen, dose response, counter-screen for tim23-1 inhibitor project, luminescence, S. cerevisiae, uHTS hits (AID 504672);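 note: yeast grew roughly 22 hours at 25 °C before the luminescence read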

Structure (SMILES) | IC50
Cc1cccc(C(=O)Oc2cccc3c(O)cccc23)c1 | 8.12 µM
O=C(Oc1ccc(=O)n(-c2ccccc2)n1)c1ccc(Cl)cc1 | 34.7 µM
COc1ccc(-c2ccc(NC(=O)c3ccco3)cc2)nn1 | 10.5 µM
O=C(/C=C/c1ccccc1Cl)Nc1ccccc1 | 44.7 µM
COC(=O)c1c(-c2ccc(S(C)(=O)=O)cc2)sc2ccc(OC)cc12 | 11.4 µM
Brc1ccc(-n2cnc(-c3ccccc3)c2)cc1 | 17.4 µM
N=C1/C(=C\c2coc3ccccc3c2=O)C(=O)N=C2SC=CN12 | 7.35 µM
O=C(N/N=C/C(Cl)=C\c1ccccc1)c1cccs1 | 59.1 µM
COCCn1c(C)cc(C(=O)COC(=O)c2ccc([N+](=O)[O-])o2)c1C | 8.28 µM
Cc1cccc(N2C(=O)c3ccc(Br)cc3C2=O)n1 | 7.58 µM
O=C(N/N=C/c1ccc(Br)s1)c1c[nH]c2ccccc12 | 13.1 µM
Cc1nc2scc(C)n2c(=O)c1S(=O)(=O)Nc1ccc(OC(F)(F)F)cc1 | 49.3 µM
O=C(/C=C\Nc1cccc(F)c1)c1cccs1 | 16.6 µM
COC(=O)c1ccc2nc(NC(=O)C3CC3)sc2c1 | 15.3 µM
Cc1ccc(-c2nn(-c3ccccc3)cc2NC(=O)CCl)cc1 | 26.7 µM
Cc1ccc2[nH]cc(C(=O)CCl)c2c1 | 26.1 µM
Cc1nc(-c2ccc(NC(=O)c3ccccc3)cc2)cs1 | 8.18 µM
CC(C)OC(=O)c1cccnc1SCc1cc(=O)n2ccccc2n1 | 42.4 µM
Cc1oc2cc(O)cc(O)c2c(=O)c1-c1ccc2c(c1)OCCCO2 | 10.7 µM
O=C(NCc1cccnc1)/C(=C\c1ccc(-c2ccc(Br)cc2)o1)S(=O)(=O)c1ccccc1 | 5.72 µM

Structure (SMILES) | IC50
COc1cccc(Nc2nc(-c3ccccc3)nc3ccccc23)c1 | 7.48 µM
Oc1ccccc1C1NN=C(c2ccccc2)S1 (stereo not given) | > 100 µM (inactive)
CC(C)(C)c1csc(NC(=O)c2ccc(Br)o2)n1 | 16.7 µM
Cc1ccc(S(=O)(=O)N[C@@H](Cc2ccccc2)C(=O)CCl)cc1 | 0.64 µM
CC(C)(C)c1ccc(OCC(=O)NCc2ccco2)c(Br)c1 | 12.2 µM
Cc1ccc(NC(=S)NC(=O)C2CC2)cc1Cl | 8.83 µM
N#C/C(=C\c1ccc(Cl)cc1)C(=O)Nc1cccnc1 | 24.3 µM
CCOC(=O)c1cccnc1SCc1cc(=O)n2ccccc2n1 | > 100 µM (inactive)
CC(C)(C)c1csc(NC(=O)c2ccc(Cl)s2)n1 | 24.6 µM
Cc1csc2nc(O)c(C(=O)NC3CCCCC3)c(=O)n12 | 9.27 µM
COCCNC(=O)/C(C#N)=C/c1ccc(OCc2ccccc2)cc1 | 16.6 µM
Cc1ccc(CS(=O)(=O)c2ncc(Cl)c(C(=O)Nc3ccc(OC(F)F)cc3)n2)cc1 | 5.88 µM
c1ccc(N=Nc2cn[nH]c2-c2ccco2)cc1 | 20.8 µM
c1ccc2[nH]c(CSc3nc4ccccc4o3)nc2c1 | 18.6 µM
COc1ccc(S(=O)(=O)CC(=O)c2cc3cccc(C)c3oc2=O)cc1 | 15.4 µM
OCCOCCNc1ncnc2c1c(-c1ccccc1)cn2-c1ccccc1 | 11.7 µM
CCN(CC)S(=O)(=O)c1ccc(C(=O)OCn2nnc3ccccc3c2=O)cc1 | > 100 µM (inactive)
CN1C(=O)C(=Cc2ccccc2OS(=O)(=O)c2ccccc2)C(=O)N(C)C1=O | 5.92 µM
COc1ccc(C(=O)COC(=O)c2cncc(Br)c2)cc1 | 15.5 µM
Cc1ccccc1C(=O)Oc1cccc2c(O)cccc12 | 13.8 µM
